Experiment: xn = mol fraction of the nth substance listed
Conditions: 101 kPa

CCCCn1cc[n+](C)c1.[Cl][Fe-]([Cl])([Cl])[Cl] + CCOC(C)=O
Conditions	viscosity [mPa·s]
293.15 K, x1 = 0.6001	16.31
298.15 K, x1 = 0.7973	26.3
298.15 K, x1 = 0.9	34.2
303.15 K, x1 = 0.6001	12.31
303.15 K, x1 = 0.7973	22.35
308.15 K, x1 = 0.1999	1.86
308.15 K, x1 = 0.3999	5.26
308.15 K, x1 = 0.6001	10.84
308.15 K, x1 = 0.7973	19.21
308.15 K, x1 = 1	31.9
313.15 K, x1 = 0.1999	1.75
313.15 K, x1 = 0.7973	16.68
318.15 K, x1 = 0.3007	2.76
318.15 K, x1 = 0.3999	4.34
318.15 K, x1 = 0.9	18.34

CCCCC(=O)[O-].CC[NH+](CC)CCO + CCCC[n+]1ccn(C)c1.COP(=O)([O-])OC
Conditions	viscosity [mPa·s]
278.15 K, x1 = 0.6984	216.8
283.15 K, x1 = 0.4973	226.8
288.15 K, x1 = 0.1018	874
293.15 K, x1 = 0.1018	594
298.15 K, x1 = 0.1952	271.2
298.15 K, x1 = 0.5989	76
298.15 K, x1 = 0.7978	58.54
303.15 K, x1 = 0.1952	199.9
303.15 K, x1 = 0.3029	132
303.15 K, x1 = 1	37.12
308.15 K, x1 = 0.1952	150.4
308.15 K, x1 = 0.5989	46.85
313.15 K, x1 = 0.3029	79.5
313.15 K, x1 = 0.4003	58.57
313.15 K, x1 = 0.5989	37.62
313.15 K, x1 = 0.8868	26.19
318.15 K, x1 = 0.1952	90.1
318.15 K, x1 = 0.4003	47.13
318.15 K, x1 = 0.5989	30.62
318.15 K, x1 = 0.6984	26.67
323.15 K, x1 = 0.7978	19.5
328.15 K, x1 = 0.4973	25.35
328.15 K, x1 = 0.5989	21.04
328.15 K, x1 = 0.6984	18.34
333.15 K, x1 = 0.1018	62.36
333.15 K, x1 = 0.3029	34.47
333.15 K, x1 = 0.4003	26.54
333.15 K, x1 = 0.8868	12.34
333.15 K, x1 = 1	10.94
338.15 K, x1 = 0.1952	38.69
338.15 K, x1 = 0.4973	18.07
338.15 K, x1 = 0.5989	15.08
343.15 K, x1 = 0.4003	19.11
343.15 K, x1 = 0.4973	15.48
343.15 K, x1 = 0.6984	11.27
348.15 K, x1 = 0.5989	11.19
353.15 K, x1 = 0.5989	9.76
358.15 K, x1 = 0.8868	5.91
358.15 K, x1 = 1	5.15
363.15 K, x1 = 0.1018	21.41
363.15 K, x1 = 0.6984	6.56
373.15 K, x1 = 0.4003	8.6
373.15 K, x1 = 1	3.53

CC[n+]1ccn(CCOC)c1.O=S(=O)([O-])C(F)(F)F + CCCO
viscosity [mPa·s]
Conditions	x1 = 0.0987	x1 = 0.1999	x1 = 0.2982	x1 = 0.3994	x1 = 0.499	x1 = 0.599	x1 = 0.698	x1 = 0.801	x1 = 0.899	x1 = 1
288.15 K	4.257	6.11	10	14.17	23.2	31.9	45.2	63.3	88.6	121
293.15 K	3.751	4.78	8.54	12.17	19.23	26.22	36.7	50.5	69.1	92.5
298.15 K	3.282	4.18	7.36	10.61	16.22	21.94	30.16	41	55.3	72.5
303.15 K	2.914	3.72	6.41	9.35	13.09	18.61	25.17	33.69	44.8	57.9
308.15 K	2.594	3.59	5.63	8.33	11.23	15.98	21.29	28.1	36.86	47.3
313.15 K	2.321	3.205	4.98	7.49	10.09	13.81	18.34	23.8	30.74	39
318.15 K	2.086	3.097	4.43	6.8	8.6	12	15.84	20.29	25.97	32.59
